1 substance from patent US6054282A, “Method for detecting biological interactions especially in receptor binding assays” (Zeneca Limited, priority 1993, dated 2000) can be followed below.

This test concerns human calcitonin receptor. The experiment in a line: Calcitonin receptor radial partition binding assay, displacement of (3-[125I]iodotyrosyl-22) salmon calcitonin. To be noted: 1 micromolar salmon calcitonin; MEL cell membranes with cloned human calcitonin receptor; room temperature, 40 minutes; FIG. 3. Here is the method: The lysate was transferred to a glass/Teflon homogeniser and given 10 strokes to ensure cell disruption. The homogenate was centrifuged at 3,000 rpm (1100 g) for 10 minutes at 4 deg.C. […] The low-speed supernatant was removed, and the pellet re-suspended in 10 ml of homogenisation buffer and dispersed with 3×10 second treatments with the Polytron homogeniser, followed by low-speed centifugation as described above. The supernatants from both spins were combined. This was then centrifuged for 30 minutes at 33,000 rpm (100,000 g) at 4 deg C. in an L7 Ultracentrifuge (Beckman) using a Ti75 head. The pellet was re-suspended in 20 mM HEPES, pH 7.4, and re-centrifuged. This pellet was then re-suspended as before and treated with 10 strokes of the glass/Teflon homogeniser.
Protein determination was by the […] method of the Pierce Chemical Co., using their recommended protocol and bovine serum albumin (BSA) as a standard. Membranes were diluted to a stock concentration of 0.08 mg/ml protein, and stored at -70 deg. C.
To a 30×43 cm glass fibre filter mat (Tomtec RG) was added 4 microlitres of receptor preparation to 2,304 positions in a rectangular array. This was allowed to dry for 2 hours at room temperature. […]
The mat was allowed to dry completely and was exposed to a storage phosphor screen (Molecular Dynamics) for 3 hours and analysed using a PhosphorImager SF (Molecular Dynamics).

In the case of calcitonin [salmon calcitonin], the “inhibition of binding of [125I] salmon calcitonin (central spot, PhosphorImager)” value is on record as “full inhibition of binding”.
